According to patent publication US9012152B2, “Anti-bacterial peptides and methods of treating diseases using same” (Yissum Research Development Company of the Hebrew …, priority 2007, dated 2015):

Key:
[1] = system: K-38; experiment: EDF response of recipient culture, strain K-38; assay type: cell-based, E. coli; details: rifampicin 10 μg/ml
Method: (§1) Comparison of EDF response in MC4100relA^+, K38, W3110, and MG1655 E. coli strains: Cultures of MC4100relA^+, K38, W3110, and MG1655 E. coli were grown as described in Example 1. When the cultures reached a density of 2.5×10^8 cells/ml, duplicate samples were removed and diluted to 3×10^4 cells/ml in pre-heated supernatant of a dense culture of MC4100relA^+(WT) which had been titrated to have an EDF concentration of either 1 unit/ml or 10 units/ml (quantified as described in Example 3). After incubation without shaking at 37° C. for 10 minutes, rifampicin (10 μg/ml) was added, and the culture was incubated without shaking at 37° C. for an additional 10 minutes. Cells were centrifuged in 14,000 rpm for 5 minutes and washed in pre-heated saline. Then, the cells were diluted, plated on LB plates, and incubated at 37° C. for 12 hours. Cell survival was calculated by comparing the colony-forming units (CFUs) of treated cells to those of untreated cells.

[2] = system: W3110; experiment: EDF response of recipient culture, strain W3110; assay type: cell-based, E. coli; details: rifampicin 10 μg/ml
Method: as §1

[3] = system: E. coli MC4100relA^+wt (WT) and MC4100relA^+ΔmazEF; experiment: Killing of E. coli cells by chemically synthesized EDF itself; assay type: cell-based; details: chemically synthesized EDF by itself (without antibiotic), 3 hours
Method: Killing of E. coli cells by chemically synthesized EDF itself: E. coli MC4100relA^+wt (WT) and MC4100relA^+ΔmazEF (ΔmazEF) were grown for 12 hours in M9 medium with shaking (160 rpm). Then, cells were diluted 1:100 in M9 medium and were grown with shaking (160 rpm) at 37° C. to a mid-logarithmic phase (OD600=0.6). Samples were removed from the cultures at a density of 2.5×10^8 (Dense), centrifuged in 14000 rpm for 5 minutes and washed in pre-heated M9. The samples were applied with different concentrations of EDF, incubated for 3 hours at 37° C. without shaking. Then, cells were centrifuged in 14000 rpm for 5 minutes and washed in pre-heated saline. Then, the cells were diluted, plated on LB plates and incubated at 37° C. for 12 hours. Cell killing was calculated by comparing the number of the colony-forming ability of cells treated by stressful conditions to those of the cells that were not exposed to the treatment.

[4] = system: E. coli MC4100relA^+; experiment: E. coli mazEF-mediated cell death in the presence of synthesized wild type and mutated EDF; assay type: cell-based; details: 1 μg/ml of peptide; rifampicin 10 μg/ml, 10 minutes; diluted culture 3×10^4
Method: (§2) E. coli mazEF-mediated cell death in the presence of synthesized wild type (WT) and mutated EDF. E. coli MC4100relA^+t(WT) and MC4100relA^+ΔmazEF (ΔmazEF) were grown for 12 hours in M9 medium with shaking (160 rpm). Then, cells were diluted 1:100 in M9 medium and were grown with shaking (160 rpm) at 37° C. to a mid-logarithmic phase (OD600=0.6). Duplicate samples were removed from the cultures at a density of 2.5×10^8 (Dense), diluted in pre-heated M9 medium to the density of 3×10^4 (M9) or diluted in pre-heated M9 applied with 1 μg/ml of one of the synthesized EDFs (SEQ ID NOs: 1-6). The samples were incubated for 10 minutes at 37° C. without shaking. Then rifampicin (10 μg/ml) was added and the cells were incubated for 10 minutes without shaking. The cells were centrifuged in 14000 rpm for 5 minutes and washed in pre-heated saline. Then, the cells were diluted, plated on LB plates and incubated at 37° C. for 12 hours. Cell killing was calculated by comparing the number of the colony-forming ability of cells treated by stressful conditions to those of the cells that were not exposed to the treatment.

[5] = Effect of temperature on EDF; assay type: physicochemical; details: supernatant incubated 10 minutes; high temperature (80° C. to 100° C.)
Method: Effect of temperature on EDF: Supernatants from the “donor” cultures described above were incubated at 37° C., 60° C., 80° C., or 100° C. for 10 minutes and cooled to 37° C. Their ability to restore mazEF-mediated cell death to a diluted culture was determined as described above.

[6] = system: E. coli MC4100relA^+wt(WT) and MC4100relA^+ΔmazEF; experiment: Killing of E. coli cells by chemically synthesized EDF in combination with other antibiotic; assay type: cell-based; details: diluted culture
Method: Killing of E. coli cells by chemically synthesized EDF in combination with other antibiotic: E. coli MC4100relA^+wt(WT) and MC4100relA^+ΔmazEF (ΔmazEF) were grown for 12 hours in M9 medium with shaking (160 rpm). Then, cells were diluted 1:100 in M9 medium and were grown with shaking (160 rpm) at 37° C. to a mid-logarithmic phase (OD600=0.6). Duplicate samples were removed from the cultures at a density of 2.5×10^8 (Dense), diluted in pre-heated M9 medium to the density of 3×10^4 (M9) or diluted in pre-heated M9 applied with different concentrations of EDF. The samples were incubated for 10 minutes at 37° C. without shaking Then rifampicin (10 μg/ml) was added and the cells were incubated for 10 minutes without shaking. The cells were centrifuged in 14000 rpm for 5 minutes and washed in pre-heated saline. Then, the cells were diluted, plated on LB plates and incubated at 37° C. for 12 hours. Cell killing was calculated by comparing the number of the colony-forming ability of cells treated by stressful conditions to those of the cells that were not exposed to the treatment.

[7] = system: E. Coli MC4100relA^+ cells, K38 cells and W3110; experiment: Chemically synthesized EDF restores mazEF mediated cell death to a dilute culture; assay type: cell-based; details: synthetic EDF 2.5 ng/ml
Method: Chemically synthesized EDF restores mazEF mediated cell death to a dilute culture: E. Coli MC4100relA^+ cells, K38 cells and W3110 and ΔmazEF cells were grown as described in Example 1 herein above. At a density of 2.5×10^8 cells/ml, samples were either not diluted (dense) or diluted to 3×10^4 cells/ml in pre-warmed M9 medium (Diluted culture) or in a pre-warmed M9 applied with chemically synthesized EDF (2.5 ng/ml; diluted culture+EDF). For FIGS. 12A-C, samples were incubated with rifampicin as in FIG. 2A. For FIG. 13A, samples were incubated in trimethorpin (2 μg/ml) for 1 hour and for FIG. 13B samples were incubated in chlorapmphenicol (50 μg/ml) for 20 minutes.

[8] = system: MG1655; experiment: EDF response of recipient culture, strain MG1655; assay type: cell-based, E. coli; details: rifampicin 10 μg/ml
Method: as §1

[9] = molecular target: proteinase K (Parengyodontium album, UniProt P06873); experiment: Effect of proteinase K on EDF; details: supernatant with proteinase K-agarose beads, 37° C., 2 hours
Chain of proteinase K (P06873 106-384): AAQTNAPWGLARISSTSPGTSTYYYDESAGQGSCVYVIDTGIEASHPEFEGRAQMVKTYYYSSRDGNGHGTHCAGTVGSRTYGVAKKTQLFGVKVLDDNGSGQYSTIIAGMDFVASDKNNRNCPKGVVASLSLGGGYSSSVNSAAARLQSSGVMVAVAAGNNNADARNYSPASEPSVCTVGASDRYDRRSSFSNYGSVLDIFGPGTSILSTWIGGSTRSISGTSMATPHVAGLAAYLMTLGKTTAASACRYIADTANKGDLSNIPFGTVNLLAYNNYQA
Method: Effect of proteinase K on EDF: Supernatants from the “donor” cultures described above were incubated with shaking at 37° C. for 2 hours as such or with agarose bease or with proteinase K-agarose beads. The beads were then removed by centrifugation at 14,000 rpm for 10 minutes. Their ability to restore mazEF-mediated cell death to a diluted culture was determined as described above.

[10] = system: MC4100relA^+; experiment: EDF response of recipient culture, strain MC4100relA^+; assay type: cell-based, E. coli; details: rifampicin 10 μg/ml
Method: as §1

[11] = Effect of pH on EDF; assay type: physicochemical; details: supernatant incubated at pH 3, 5, 7, 9 or 11 for 2 hours; extreme pH; readout: restoring mazEF-mediated cell death
Method: Effect of pH on EDF: Supernatants from the “donor” cultures described above were incubated at pH 3, 5, 7, 9 or 11 for 2 hours and titrated to PH 7. Their ability to restore mazEF-mediated cell death to a diluted culture was determined as described above.

[12] = system: E. Coli NC4100relA^+; experiment: Ability of mutant EDF molecules to inhibit wild type EDF activity; assay type: cell-based; details: constant amount (50 ng/ml) of mutated EDF, various concentrations of WT EDF
Method: FIG. 15 is a graph illustrating the ability of mutant EDF molecules to inhibit wild type EDF activity. The […] peptides analyzed include NNWNN (SEQ ID NO: 1); GNWNN (SEQ ID NO: 2); NGWNN (SEQ ID NO: 3); NNGNN (SEQ ID NO: 4); NNWGN (SEQ ID NO: 5); and NNWNG (SEQ ID NO: 6).
Ability of mutant EDF molecules to inhibit wild type EDF activity: Various concentration of chemically synthesized WT EDF (SEQ ID NO: 1) were added to diluted cultures of E. Coli NC4100relA^+ containing a constant amount (50 ng/ml) of each of the mutated EDF described in Table 6. The Experiment was carried out as described herein above.

[13] = system: E. Coli MC41relA^+; experiment: EDF activity of modified derivatives (size and external Asn residues); assay type: cell-based; details: various concentrations added to diluted cultures; incubated with rifampicin
Method: The […] peptides analyzed include NNWNN (SEQ ID NO: 1); GNWNN (SEQ ID NO: 2); NGWNN (SEQ ID NO: 3); NNGNN (SEQ ID NO: 4); NNWGN (SEQ ID NO: 5); and NNWNG (SEQ ID NO: 6). […] Chemically synthesized EDF (SEQ ID NO: 1) or its modified derivatives were added at various concentrations to diluted cultures of E. Coli MC41relA^+. No EDF was added to a control culture. […] Samples were incubated with rifampicin as described in Example 1.
as §2, with “Duplicate samples were removed from the cultures at a density of 2.5×10^8 (Dense), diluted in pre-heated M9 medium to the density of 3×10^4 (M9) or diluted in pre-heated M9 applied with 1 μg/ml of one of the synthesized EDFs (SEQ ID NOs: 1-6).” left out

[14] = EDF 1 units/ml (titrated supernatant)
[15] = EDF 10 units/ml (titrated supernatant)

Question: With “Asn-Asn-Trp-Asn-Asn (NNWNN; Chemically synthesized WT EDF) [linear pentapeptide NNWNN, extracellular death factor of E. coli; purified from supernatant and chemically synthesized]” as the substance, how does the “% Survival of recipient culture in response to added EDF” value (shortened to “% Survival of recipient culture”) [1, 14] read?
Answer: Its value is 17.0 ± 4.2%.

Question: What about the “% Survival of recipient culture” value [1, 15] of the same substance?
Answer: The value was 12.0 ± 6.6%.

Question: What about the “% Survival of recipient culture” value [2, 14] of the same substance?
Answer: The value was 15.0 ± 3.6%.

Question: And the “% Survival of recipient culture” value [2, 15]?
Answer: Its value is 14.0 ± 2.3%.

Question: What about the “concentrations of EDF at which cell death is mazEF-dependent” value [3] of the same substance?
Answer: Its value is 1 to 10 µg/mL.

Question: What about the “concentrations of EDF at which cell death is mazEF-independent” value [3] of the same substance?
Answer: Its value is over 10 µg/mL.

Question: What about the “% Cell killing following mazEF induction with rifampicin” value [4] of the same substance?
Answer: The value was 99.5%.

Question: And the “sensitivity of EDF to temperature” value [5]?
Answer: The value was “sensitive”.

Question: And the “concentrations of EDF at which cell death is mazEF-independent” value ([6]; chemically synthesized EDF in conjunction with an antibiotic (rafamycin))?
Answer: The value was “over 500 ng/ml”.

Question: And the “concentrations of EDF at which cell death is mazEF-dependent” value ([6]; chemically synthesized EDF in conjunction with an antibiotic)?
Answer: The value was 1 to 500 ng/mL.

Question: And the “mazEF-mediated cell death in a diluted culture” value (“mazEF-mediated cell death” for short) ([7]; induced by chloramphenicol 50 μg/ml, 20 minutes)?
Answer: The value was “enhanced mazEF-mediated cell death”.

Question: And the “mazEF-mediated cell death” value ([7]; induced by rifampicin in different E. Coli strains (MC4100relA^+, K38, W3110))?
Answer: Its value is “enhanced mazEF-mediated cell death”.

Question: And the “mazEF-mediated cell death” value ([7]; induced by trimethoprim 2 μg/ml, 1 hour)?
Answer: Its value is “enhanced mazEF-mediated cell death”.

Question: And the “% Survival of recipient culture” value [8, 14]?
Answer: Its value is 77.8 ± 3.4%.

Question: What about the “% Survival of recipient culture” value [8, 15] of the same substance?
Answer: Its value is 19.6 ± 4.5%.

Question: And the “sensitivity of EDF to proteinase K” value [9]?
Answer: Its value is “sensitive”.

Question: What about the “% Survival of recipient culture” value ([10]; EDF 1 units/ml (titrated supernatant of dense MC4100relA^+ culture)) of the same substance?
Answer: Its value is 8.0 ± 5.0%.

Question: What about the “% Survival of recipient culture” value [10, 15] of the same substance?
Answer: The value was 7.0 ± 2.0%.

Question: What about the “sensitivity of EDF to pH” value [11] of the same substance?
Answer: The value was “sensitive”.

Question: Which “% Cell killing following mazEF induction with rifampicin” value [4] does the source give for “GNWNN: Mutated EDF pentapeptide, glycine in position 1 (Chemically synthesized mutant EDF derivative)” here?
Answer: The value was 9%.

Question: And the “inhibition of wild type EDF activity” value [12]?
Answer: Its value is “capable of antagonizing”.

Question: For “NGWNN: Mutated EDF pentapeptide, glycine in position 2 (Chemically synthesized mutant EDF derivative)”, which “% Cell killing following mazEF induction with rifampicin” value [4] is on record?
Answer: The value was 51%.

Question: With “NNGNN: Mutated EDF pentapeptide, glycine in position 3 (Chemically synthesized mutant EDF derivative)” as the substance, how does the “% Cell killing following mazEF induction with rifampicin” value [4] read?
Answer: The value was 41%.

Question: For “NNNWNNN (Chemically synthesized modified EDF derivative) [heptapeptide derivative of EDF]”, which EDF activity [13] is on record?
Answer: Its EDF activity is “partial activity”.

Question: Which “% Cell killing following mazEF induction with rifampicin” value [4] does the source give for “NNWGN: Mutated EDF pentapeptide, glycine in position 4 (Chemically synthesized mutant EDF derivative)” here?
Answer: Its value is 72%.

Question: With “NNWNG: Mutated EDF pentapeptide, glycine in position 5 (Chemically synthesized modified EDF derivative)” as the substance, how does the “% Cell killing following mazEF induction with rifampicin” value [4] read?
Answer: Its value is 19%.

Question: What about the “inhibition of wild type EDF activity” value [12] of the same substance?
Answer: The value was “capable of antagonizing”.

Question: With “NNWNQ: EDF pentapeptide with Asn replaced by Gln at the last position (Chemically synthesized modified EDF derivative)” as the substance, how does the EDF activity [13] read?
Answer: The EDF activity was “only a partial reduction in EDF activity”.

Question: With “QNWNN: EDF pentapeptide with Asn replaced by Gln at the first position (Chemically synthesized modified EDF derivative)” as the substance, how does the EDF activity [13] read?
Answer: The EDF activity was “only a partial reduction in EDF activity”.
